In US6211210A, “Diphenyl-1,2,3-thiadiazol-3-oxides, compositions and methods of use” (Merck Frosst Canada & Co., priority 2000, dated 2001):

Assays:
[1] = test system: carrageenan paw edema, rats; test: Rat paw edema assay (carrageenan); type: in vivo, Male Sprague-Dawley rats; details: po, 1 hr before carrageenan, paw volume 3 hr later, read-out: ED50 (edema inhibition in rat paw)
Method: Male Sprague-Dawley rats (150-200 g) were fasted overnight and were given, po, either vehicle (1% methocel or 5% Tween 80), or a test compound. One hr later, a line was drawn using a permanent marker at the level above the ankle in one hind paw to define the area of the paw to be monitored. The paw volume (V0) was measured using a plethysmometer (Ugo-Basile, Italy) based on the principle of water displacement. The animals were then injected subplantarly with 50 ,l of 1% carrageenan solution in saline (FMC Corp, Maine) into the paw using an insulin syringe with a 25-gauge needle (i.e., 500 μg carrageenan per paw). Three hr later, the paw volume (V3) was measured and the increases in paw volume (V3 -V0) were calculated. The animals were sacrificed by CO2 asphyxiation and the absence or presence of stomach lesions scored. Data were compared with the vehicle-control values and percent inhibition calculated. ED50 values were used for comparison. All treatment groups were coded to eliminate observer bias.

[2] = target: T1, COX-1 (Homo sapiens, UniProt P23219); test: Human whole blood assay: COX-1 (clotting-induced TxB2 production); type: cell-based; details: clotting-induced TxB2, 1 hour at 37° C.
T1 construct: platelets in whole blood contain a large amount of the COX-1 enzyme; endogenous in cells; host or cells: platelets in fresh human whole blood
T1 sequence (P23219 24-599): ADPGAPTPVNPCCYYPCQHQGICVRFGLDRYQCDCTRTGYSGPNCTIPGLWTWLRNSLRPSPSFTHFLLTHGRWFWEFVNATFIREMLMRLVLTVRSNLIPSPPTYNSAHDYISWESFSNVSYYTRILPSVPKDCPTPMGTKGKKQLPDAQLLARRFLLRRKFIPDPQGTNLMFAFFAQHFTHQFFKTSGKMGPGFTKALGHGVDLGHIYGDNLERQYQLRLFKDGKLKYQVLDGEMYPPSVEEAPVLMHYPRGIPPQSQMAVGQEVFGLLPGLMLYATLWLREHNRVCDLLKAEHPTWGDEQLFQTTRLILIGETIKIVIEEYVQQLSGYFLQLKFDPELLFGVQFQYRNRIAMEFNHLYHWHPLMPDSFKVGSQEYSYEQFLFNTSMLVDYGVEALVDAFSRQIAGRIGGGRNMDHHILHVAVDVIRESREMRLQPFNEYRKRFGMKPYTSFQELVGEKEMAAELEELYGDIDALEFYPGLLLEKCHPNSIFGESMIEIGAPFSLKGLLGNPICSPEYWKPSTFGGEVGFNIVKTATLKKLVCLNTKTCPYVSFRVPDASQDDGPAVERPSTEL
Source text: (§1) As well, platelets in whole blood contain a large amount of the COX-1 enzyme. Immediately following blood clotting, platelets are activated through a thrombin-mediated mechanism. This reaction results in the production of thromboxane B2 (TxB2) via activation of COX-1. Thus, the effect of test compounds on TxB2 levels following blood clotting can be examined and used as an index for COX-1 activity. Therefore, the degree of selectivity by the test compound can be determined by measuring the levels of PGE2 after LPS induction (COX-2) and TxB2 following blood clotting (COX-1) in the same assay.
Fresh blood was collected into vacutainer tubes containing no anticoagulants. […] The tubes were vortexed and incubated at 37° C. for 1 hour to allow blood to clot. Serum was obtained by centrifugation (12,000×g for 5 min). Serum protein is precipitated by mixing a 100 μL aliquot of serum with 400 μL of methanol.
(§2) In the assay, inhibition is determined by measuring the amount of prostaglandin E2 (PGE2) synthesized in the presence of arachidonic acid, COX-1 or COX-2 and a putative inhibitor.

[3] = target: T2, COX-2 (Homo sapiens, UniProt P35354); test: Human whole blood assay: COX-2 (LPS-induced PGE2 production); type: cell-based; details: LPS-induced PGE2, 24 hours at 37° C.
T2 construct: incubation of human whole blood with LPS which induces COX-2; endogenous in cells
T2 sequence (P35354 18-604): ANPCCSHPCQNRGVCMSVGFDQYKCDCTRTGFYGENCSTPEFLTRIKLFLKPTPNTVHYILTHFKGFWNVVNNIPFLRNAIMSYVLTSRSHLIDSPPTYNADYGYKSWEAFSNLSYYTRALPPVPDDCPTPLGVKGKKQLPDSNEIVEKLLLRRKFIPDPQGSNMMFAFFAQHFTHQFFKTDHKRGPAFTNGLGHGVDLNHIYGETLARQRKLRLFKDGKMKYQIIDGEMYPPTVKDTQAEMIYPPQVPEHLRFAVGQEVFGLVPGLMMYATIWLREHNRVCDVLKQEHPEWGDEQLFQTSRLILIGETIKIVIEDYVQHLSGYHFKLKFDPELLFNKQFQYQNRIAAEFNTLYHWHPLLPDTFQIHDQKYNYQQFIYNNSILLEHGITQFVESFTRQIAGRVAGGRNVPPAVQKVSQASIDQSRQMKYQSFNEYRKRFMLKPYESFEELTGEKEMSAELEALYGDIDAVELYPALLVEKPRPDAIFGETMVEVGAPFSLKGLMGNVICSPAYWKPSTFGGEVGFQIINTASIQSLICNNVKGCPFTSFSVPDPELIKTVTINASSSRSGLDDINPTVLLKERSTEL
Source text: as §1
Fresh blood was collected in heparinized tubes by venipuncture from both male and female volunteers. The subjects had no apparent inflammatory conditions and had not taken any NSAIDs for at least 7 days prior to blood collection. Plasma was immediately obtained from a 2 mL blood aliquot to use as blank (basal levels of PGE2). […] Five hundred μL aliquots of blood were incubated with either […] vehicle (DMSO) or 2 μL of a test compound at final concentrations varying from 10 nM to 30 μM for 24 hours at 37° C. At the end of the incubation, the blood was centrifuged at 12,000×g for 5 minutes to obtain plasma. Protein in the plasma is precipitated by mixing a 100 μL aliquot of plasma with 400 μL of methanol. The supernatant was assayed for PGE2 using a radioimmunoassay kit (Amersham, RPA#530) after conversion of PGE2 to its methyl oximate derivative according to the manufacturer's procedure.
as §2

Row | Structure (SMILES) | ED50 [1] | IC50 [2] | IC50 [3]
1 | CS(=O)(=O)c1ccc(-c2sn[n+]([O-])c2-c2ccccc2)cc1 [Example 1, 4-PHENYL-5-(4-(METHYLSULFONYL)PHENYL-1-2-3--THIADIAZOL-3-OXIDE] | 0.9 mg/kg | 38000 nM | 600 nM
2 | CS(=O)(=O)c1ccc(-c2sn[n+]([O-])c2-c2ccc(F)cc2)cc1 [Example 2, 4-(4-FLUOROPHENYL)-5-(4-(METHYLSULFONYL)PHENYL-1-2-3-THIADIAZOL-3-OXIDE] | 0.5 mg/kg | 18000 nM | 600 nM
3 | CS(=O)(=O)c1ccc(-c2sn[n+]([O-])c2-c2cccc(F)c2)cc1 [Example 3, 4-(3-FLUOROPHENYL)-5-(4-(METHYLSULFONYL)PHENYL-1-2-3-THIADIAZOL-3-OXIDE] | – | 88000 nM | 1300 nM
4 | CS(=O)(=O)c1ccc(-c2sn[n+]([O-])c2-c2ccc(F)c(F)c2)cc1 [Example 4, 4-(3,4-DIFLUOROPHENYL)-5-(4-(METHYLSULFONYL)PHENYL-1-2-3-THIADIAZOL-3-OXIDE] | – | 57000 nM | 500 nM
5 | CS(=O)(=O)c1ccc(-c2sn[n+]([O-])c2-c2cccc(Cl)c2)cc1 [Example 5, 4-(3-CHLOROPHENYL)-5-(4-(METHYLSULFONYL)PHENYL-1-2-3-THIADIAZOL-3-OXIDE] | 1.5 mg/kg | – | 500 nM
6 | COc1ccc2c(c1)c(CC(=O)O)c(C)n2C(=O)c1ccc(Cl)cc1 [Indomethacin, reference compound] | 2 mg/kg | – | –
